Settings: Liquid; for speed of sound: Pulse-echo method; for mass density: Vibrating tube method

CCCCCn1cc[n+](C)c1.O=S(=O)([N-]S(=O)(=O)C(F)(F)F)C(F)(F)F
Settings	mass density [kg/m3]	speed of sound [m/s]
288.15 K, 500 kPa	–	1255.5
288.15 K, 3500 kPa	–	1266
288.15 K, 7000 kPa	–	1278.1
288.15 K, 10000 kPa	–	1288.3
288.15 K, 13500 kPa	–	1299.9
288.15 K, 16990 kPa	–	1311.2
288.15 K, 20000 kPa	–	1320.7
288.15 K, 30000 kPa	–	1351.7
288.15 K, 40000 kPa	–	1380.9
288.15 K, 50000 kPa	–	1409
288.15 K, 60000 kPa	–	1435.6
288.15 K, 70000 kPa	–	1461.2
288.15 K, 80000 kPa	–	1486
288.15 K, 90000 kPa	–	1509.9
288.15 K, 100000 kPa	–	1533
288.15 K, 112500 kPa	–	1560.9
288.15 K, 125000 kPa	–	1587.9
288.15 K, 137510 kPa	–	1613.5
288.15 K, 150000 kPa	–	1637.8
298.15 K, 100 kPa	1404.45	–
298.15 K, 500 kPa	–	1232.1
298.15 K, 1830 kPa	1405.67	–
298.15 K, 3500 kPa	–	1242.7
298.15 K, 7000 kPa	–	1255
298.15 K, 10000 kPa	–	1265.5
298.15 K, 10020 kPa	1411.85	–
298.15 K, 13500 kPa	–	1277.3
298.15 K, 14980 kPa	1415.45	–
298.15 K, 16990 kPa	–	1288.9
298.15 K, 19750 kPa	1418.8	–
298.15 K, 20000 kPa	–	1298.6
298.15 K, 25860 kPa	1422.94	–
298.15 K, 30000 kPa	–	1330.5
298.15 K, 31480 kPa	1426.64	–
298.15 K, 37770 kPa	1430.64	–
298.15 K, 40000 kPa	–	1360.4
298.15 K, 44170 kPa	1434.54	–
298.15 K, 50000 kPa	–	1388.9
298.15 K, 50750 kPa	1438.46	–
298.15 K, 59590 kPa	1443.56	–
298.15 K, 60000 kPa	–	1415.9
298.15 K, 70000 kPa	–	1441.9
298.15 K, 80000 kPa	–	1467
298.15 K, 90000 kPa	–	1491.1
298.15 K, 100000 kPa	–	1514.5
298.15 K, 112500 kPa	–	1542.6
298.15 K, 125000 kPa	–	1569.7
298.15 K, 137510 kPa	–	1595.7
298.15 K, 150000 kPa	–	1620.3
299.15 K, 100 kPa	1403.5	–
299.15 K, 1830 kPa	1404.78	–
299.15 K, 10020 kPa	1410.92	–
299.15 K, 14980 kPa	1414.53	–
299.15 K, 19750 kPa	1417.87	–
299.15 K, 25860 kPa	1422.01	–
299.15 K, 31480 kPa	1425.7	–
299.15 K, 37770 kPa	1429.73	–
299.15 K, 44170 kPa	1433.68	–
299.15 K, 50750 kPa	1437.64	–
299.15 K, 59590 kPa	1442.74	–
300.15 K, 100 kPa	1402.62	–
300.15 K, 1830 kPa	1403.85	–
300.15 K, 10020 kPa	1410.01	–
300.15 K, 14980 kPa	1413.57	–
300.15 K, 19750 kPa	1416.91	–
300.15 K, 25860 kPa	1421.12	–
300.15 K, 31480 kPa	1424.81	–
300.15 K, 37770 kPa	1428.87	–
300.15 K, 44170 kPa	1432.84	–
300.15 K, 50750 kPa	1436.83	–
300.15 K, 59590 kPa	1441.99	–
301.15 K, 100 kPa	1401.81	–
301.15 K, 1830 kPa	1403.07	–
301.15 K, 10020 kPa	1409.19	–
301.15 K, 14980 kPa	1412.71	–
301.15 K, 19750 kPa	1416.05	–
301.15 K, 25860 kPa	1420.19	–
301.15 K, 31480 kPa	1423.9	–
301.15 K, 37770 kPa	1427.94	–
301.15 K, 44170 kPa	1431.88	–
301.15 K, 50750 kPa	1435.89	–
301.15 K, 59590 kPa	1441.12	–
302.15 K, 100 kPa	1400.89	–
302.15 K, 1830 kPa	1402.16	–
302.15 K, 10020 kPa	1408.28	–
302.15 K, 14980 kPa	1411.85	–
302.15 K, 19750 kPa	1415.2	–
302.15 K, 25860 kPa	1419.36	–
302.15 K, 31480 kPa	1423.08	–
302.15 K, 37770 kPa	1427.17	–
302.15 K, 44170 kPa	1431.17	–
302.15 K, 50750 kPa	1435.18	–
302.15 K, 59590 kPa	1440.42	–
303.15 K, 100 kPa	1399.89	–
303.15 K, 1830 kPa	1401.18	–
303.15 K, 10020 kPa	1407.27	–
303.15 K, 14980 kPa	1410.82	–
303.15 K, 19750 kPa	1414.3	–
303.15 K, 25860 kPa	1418.46	–
303.15 K, 31480 kPa	1422.18	–
303.15 K, 37770 kPa	1426.25	–
303.15 K, 44170 kPa	1430.26	–
303.15 K, 50750 kPa	1434.31	–
303.15 K, 59590 kPa	1439.59	–
308.15 K, 100 kPa	1395.34	–
308.15 K, 500 kPa	–	1209.4
308.15 K, 1830 kPa	1396.59	–
308.15 K, 3500 kPa	–	1220.4
308.15 K, 7000 kPa	–	1233.1
308.15 K, 10000 kPa	–	1243.7
308.15 K, 10020 kPa	1402.73	–
308.15 K, 13500 kPa	–	1255.8
308.15 K, 14980 kPa	1406.29	–
308.15 K, 16990 kPa	–	1267.5
308.15 K, 19750 kPa	1409.65	–
308.15 K, 20000 kPa	–	1277.5
308.15 K, 25860 kPa	1413.83	–
308.15 K, 30000 kPa	–	1310
308.15 K, 31480 kPa	1417.59	–
308.15 K, 37770 kPa	1421.72	–
308.15 K, 40000 kPa	–	1340.4
308.15 K, 44170 kPa	1425.82	–
308.15 K, 50000 kPa	–	1369.1
308.15 K, 50750 kPa	1429.95	–
308.15 K, 59590 kPa	1435.35	–
308.15 K, 60000 kPa	–	1396.7
308.15 K, 70000 kPa	–	1423.2
308.15 K, 80000 kPa	–	1448.6
308.15 K, 90000 kPa	–	1473
308.15 K, 100000 kPa	–	1496.6
308.15 K, 112500 kPa	–	1525.2
308.15 K, 125000 kPa	–	1552.6
308.15 K, 137510 kPa	–	1579
308.15 K, 150000 kPa	–	1603.7
313.15 K, 100 kPa	1390.55	–
313.15 K, 1830 kPa	1391.88	–
313.15 K, 10020 kPa	1397.99	–
313.15 K, 14980 kPa	1401.57	–
313.15 K, 19750 kPa	1404.95	–
